{"source": "patent US20020019412A1", "about": "“MODULATORS OF PROTEIN TYROSINE PHOSPHATASES (PTPASES)” (priority 1998, published 2002)", "key": {"[1]": {"target": "T1, PTP1B (Homo sapiens, UniProt P18031)", "T1 construct": "a truncated form of PTP1B (corresponding to the first 321 amino acids); made in house; host or cells: E. coli", "T1 sequence (P18031 1-321)": "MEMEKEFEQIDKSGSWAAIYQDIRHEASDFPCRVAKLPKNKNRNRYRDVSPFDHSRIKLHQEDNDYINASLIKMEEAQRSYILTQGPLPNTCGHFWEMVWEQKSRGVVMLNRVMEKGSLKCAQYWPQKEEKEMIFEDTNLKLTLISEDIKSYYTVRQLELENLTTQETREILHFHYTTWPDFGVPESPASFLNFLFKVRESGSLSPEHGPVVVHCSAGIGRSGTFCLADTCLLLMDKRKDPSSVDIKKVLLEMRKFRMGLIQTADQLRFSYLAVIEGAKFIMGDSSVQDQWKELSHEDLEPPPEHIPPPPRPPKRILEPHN", "assay": "Inhibition of truncated PTP1B, p-nitrophenyl phosphate substrate", "type": "biochemical", "conditions": "truncated PTP1B (first 321 amino acids) expressed in E. coli; pNPP substrate; pH 5.5; 25° C., 60 minutes", "protocol": "The compounds are evaluated for biological activity with a truncated form of PTP1B (corresponding to the first 321 amino acids), which is expressed in E. coli and purified to apparent homogeneity using published procedures well-known to those skilled in the art. The enzyme reactions are carried out using standard conditions essentially as described by Burke et al. (Biochemistry 35; 15989-15996 (1996)). The assay conditions are as follows. Appropriate concentrations of the compounds of the invention are added to the reaction mixtures containing different concentrations of the substrate, p-nitrophenyl phosphate (range: 0.16 to 10 mM—final assay concentration). The buffer used is 100 mM sodium acetate pH 5.5, 50 mM sodium chloride, 0.1% (w/v) bovine serum albumin and 5 mM dithiothreitol (total volume […]). The reaction is started by addition of the enzyme and carried out in microtiter plates at 25° C. for 60 minutes. The reactions are stopped by addition of NaOH. The enzyme activity is determined by measurement of the absorbance at 405 nm with appropriate corrections for absorbance at 405 nm of the compounds and p-nitrophenyl phosphate. The data are analyzed using nonlinear regression fit to classical Michaelis Menten enzyme kinetic models. Inhibition is expressed as Ki values in μM."}}, "note": "Counter-ions that a name gives are not always drawn.", "data": [{"compound": "O=C(O)C(=O)Nc1c(C(=O)O)sc2ncccc12", "note": "(as salt: sodium) [Example 1, 3-(Oxalyl-amino)-thieno[2,3-b]pyridine-2-carboxylic acid, mono sodium salt]", "values": [{"measurement": "melting point", "result": "> 250", "unit": "°C"}]}, {"compound": "O=C(O)C(=O)Nc1c(C(=O)O)sc2ncccc12", "note": "[Example 1, 3-(Oxalyl-amino)-thieno[2,3-b]pyridine-2-carboxylic acid, mono sodium salt]", "values": [{"measurement": "Ki", "setting": "[1]", "result": 330, "unit": "µM"}]}]}
